Laboratory results from BindingDB's records for doi:10.1021/acs.jmedchem.7b00076 (University of Chinese Academy of Sciences, 2017).

Tests used:
[1] = Inhibition of CCDC6-fused RET (unknown origin) expressed in mouse Ba/F3 cells assessed as inhibition of cell proliferation after 72 hrs by cell counting kit-8 assay
[2] = Inhibition of FGFR1 in human NCI-H1581 cells assessed as inhibition of cell proliferation after 72 hrs by cell counting kit-8 assay
[3] = Inhibition of FGFR1OP2 fused FGFR1 in human KG1 cells assessed as inhibition of cell proliferation after 72 hrs by cell counting kit-8 assay
[4] = Inhibition of TEL-fused KDR (unknown origin) expressed in mouse Ba/F3 cells assessed as inhibition of cell proliferation after 72 hrs by cell counting kit-8 assay

IC50 [1]: 316 nM
IC50 [2]: 391 nM
IC50 [3]: 15 nM
IC50 [4]: 9.8 nM
Compound: Cc1n[nH]c2ccc(-c3cc(N[C@@H](CO)c4ccccc4)cnc3-c3cc(F)ccc3O)cc12
